Data on seven compounds can be found in patent US6407137B2, “Dopamine analog amide” (Protarga, Inc., priority 1988, dated 2002).

A short description of series [1]: Brain penetration index (BPI) determination, brain uptake relative to liver. The format is in vivo, male balb C mice. Particulars: for crossing of the blood brain barrier (in words): variations of the carrier. An excerpt:
A brain penetration index (BPI) determination was used as a criterion for measuring the capacity of a compound to cross the blood brain barrier. Shashoua, V. E., Jacob, J. N., Ridge, R., Campbell, A. and Baldessarini, R. J., J. Med. Chem. 27, 659 (1984). The BPI is a measure of the uptake of a compound by the brain relative to its uptake by the liver. The liver is chosen as a reference since it is an organ which has no barrier to diffusable molecules present in the blood. Moreover, even if subcutaneous injections are used, the injected material tends to remain largely at the site of the injection and slowly diffuse into the circulation. Therefore, the amount of material in the liver will reflect the amount available rather than the initial dose injected.
Measurements of the quantity of the drug present in the brain and liver were measured at five minutes after a subcutaneous injection and were used to calculate the BPI, the equation being: […]
For these measurements, compound 8739 was synthesized from ^14C-labeled dopamine. Thirty μCi of dopamine labeled hydrochloride was mixed with 0.1 mg of unlabeled dopamine hydrobromide and reacted with a two-fold excess of DHA anhydride. The reaction was run overnight; the product was then evaporated to dryness and dissolved in ethanol. The compound was identified as 8739 by its migration properties on thin-layer chromatography using chloroform:methanol as one solvent and dimethylformamide (DMF) as the other. The migration properties were equivalent to those of the unlabeled product.
^14C-labeled 8739 was dissolved in 15% propylene glycol in 0.1 M NaHCO3 and then injected subcutaneously (s.c.) into male balb C mice (20±2 g). After 5 minutes the animals were sacrificed by cervical fracture and the brain and liver were dissected out, weighed and homogenized in 8 and 10 ml of Brain Protein Solvent (BPS) buffer, respectively [BPS=2% sodium dodecyl sulfate in 0.03 M Tris, 6 M urea, pH 7.6, 0.01 M EDTA and 0.14 N NaCl]. Aliquots were then counted for ^14C content in 10 ml of a liquid scintillation fluid, Liquiscent (National Diagnostic Company, Somerville, N.J.) using a Beckman liquid scintillation counter. The ^14C counts were then used to calculate the total quantity of compound 8739 present in the brain per gram of tissue as compared to that in the liver. The ratio of the amount in the brain as a percent of that present in liver was determined.

A short description of series [2]: Open-field motor activity measurement. The series is classed as in vivo, balb-c mice. Particulars: administered at the same dose as compound 8739. As for the experimental part: The effect of compound 8739 on general motor activity was determined. The general motor activity of balb-c mice was measured in a Stoelting electronic activity monitor apparatus during a 90-min period following an intraperitoneal injection of the compound as a solution in 15% propylene glycol in 0.1 M NaHCO3. A detailed description of the apparatus is reported in Stewart R. J., Campbell A., Spark G. and Balessarini R. J. Psychopharmacol. 60, 281 (1979).
The test group (six mice) received an i.p. injection of the drug in a vehicle (15% propylene glycol in 0.1 M NaHCO3, a total volume of between about […].). The six control mice received the same volume of vehicle, but no drug. The results (Shown in FIG. 1,) are expressed as the percent decrease in open field activity for the test group versus the control group. […] The response was dose dependant with higher doses of compound 8739 resulting in a greater decrease in general motor activity.
The effects of the mode of delivery of Compound 8739 (oral vs. i.p.) on the general open-field activity of mice (n=6) was assessed. […] A 40-50% decrease in activity occurred when either delivery method was employed.

The conditions of series [3]: reported in the literature; cited from earlier work.
For series [4] the following is noted: previous reports, Chan and Fishman, SCIENCE (1978); cited from earlier work.
Series [5] in a line: Circling behavior in rats with unilateral nigrostriatal lesions. The series is classed as in vivo. Particulars: for AVERAGE ROTATION SCORES (Rotations/minutes) Contralateral / AVERAGE ROTATION SCORES (Rotations/minutes) Ipsilateral: 30-min period; for circling behavior (in words): rats with nigrostriatal lesions, i.p. The protocol:
Dopamine agonists such as apomorphine and amphetamine cause circling behavior in animals with nigrostriatal lesions.
Unilateral nigrostriatal lesions in rats were produced by administering unilateral injections of 6-OH dopamine into the nigrostriatum pathway. Seven days later, these animals were i.p. injected with the test drugs and circling behavior was recorded as rotations per minute during a 30-min period in the test apparatus, Ungerstedt U. and Arbathnott G. W., Brain Res. 24, 485-493 (1970).

A short description of series [6]: Test for tolerance: food consumption during long-term administration. The format is in vivo, mice. Particulars: 2 mg/kg i.p. daily for 21 days. As for the experimental part:
The effect of long-term administration of compound 8739 on the pattern of food consumption of mice was compared to the long-term effects of the administration of amphetamine. Daily i.p. injections of compound 8739 (20 mg/kg) were given to test animals and daily i.p. injections of amphetamine (2 mg/kg) were given to control animals for 21 days. 24 hours after the first injection and about every five days after that, the animals were food-deprived for 24 hours with water freely available, and then were tested for food consumption for one-hour beginning at five minutes after receiving their daily injection.
FIG. 4 plots the percent decrease in food consumption versus time.

The conditions of series [7]: animal tests, background; cited from earlier work.
The nature of series [8]: Food consumption measurements. The format is in vivo, balb-c mice. Particulars: variations of the carrier. The protocol:
The effect of compound 8739 on food consumption was determined for balb-c mice that were food deprived for 24 hr, with water freely available. The six test mice were given an i.p. injection of compound 8739 as a solution in 15% propylene glycol in 0.1 M NaHCO3, a total volume of between about 0.1-0.3 ml. The six control mice received the same volume of vehicle, but no drug. The quantity of “mouse chow” eaten during the 60-min period following the injections was determined. The results, also shown in FIG. 1, are expressed as the percent decrease in food consumption for the test group versus the control group. […] The decrease was dose dependent, with higher doses of compound 8739 causing greater decrease in food intake. The same experiment was conducted using oral administration of compound 8739.

Like-named read-outs stand apart in the source and are kept apart here.

With `NCCc1ccc(O)c(O)c1` [Dopamine], the “brain penetration index (BPI)” value in series [1] was “about 4”. Besides, the “BPI Value (%)” value in series [1] (BPI=[brain]/[liver]x100, 5 minutes after s.c. injection) was found to be 4%. Besides, the “changes in open-field activity” value in series [2] is on record as “No significant changes”.
Turning to `O=C[C@H](O)[C@@H](O)[C@H](O)[C@H](O)CO` [D-glucose], in series [3], the “BPI Value (%)” value was 33% and the BPI index was 33.
Turning to `CCC=CCC=CCC=CCC=CCC=CCC=CCCC(=O)O` [carrier molecule (T), 4, 7, 10, 13, 16, 19 docosahexa-enoic acid, reference compound], the “changes in open-field activity” value in series [2] is on record as “No significant changes”. For the same compound, the “swelling of the brain” value in series [4] is given as “induce swelling of the brain”.
Turning to `CN1CCc2cccc3c2[C@H]1Cc1ccc(O)c(O)c1-3` [Apomorphine], in series [5] (0.1 mg/kg i.p.), the “AVERAGE ROTATION SCORES (Rotations/minutes) Contralateral” value worked out at 4.8 Rotations/minutes and the “AVERAGE ROTATION SCORES (Rotations/minutes) Ipsilateral” value worked out at 0.1 Rotations/minutes. Besides, in series [5] (0.5 mg/kg i.p.), the “AVERAGE ROTATION SCORES (Rotations/minutes) Contralateral” value stood at 13.7 Rotations/minutes and the “AVERAGE ROTATION SCORES (Rotations/minutes) Ipsilateral” value is reported as 0 Rotations/minutes. Moreover, the “circling behavior (in words)” value in series [5] is on record as “rapid circling behavior to the contralateral side of the lesion”.
Turning to `CC(N)Cc1ccccc1` (stereo not drawn) [Amphetamine], in series [5] (3.0 mg/kg i.p.), the “AVERAGE ROTATION SCORES (Rotations/minutes) Contralateral” value came out at 0.4 Rotations/minutes and the “AVERAGE ROTATION SCORES (Rotations/minutes) Ipsilateral” value came out at 2.5 Rotations/minutes. Moreover, in series [5] (5.0 mg/kg i.p.), the “AVERAGE ROTATION SCORES (Rotations/minutes) Contralateral” value is 0.92 Rotations/minutes and the “AVERAGE ROTATION SCORES (Rotations/minutes) Ipsilateral” value was found to be 3.32 Rotations/minutes. The “circling behavior (in words)” value in series [5] was “circling rapidly to the ipsilateral lesion side”. Besides, the “decrease in food intake over time” value in series [6] is given as “virtually disappeared after 15 days”. The tolerance result in series [6] (food intake) is “complete tolerance”. The “time within which tolerance develops” value in series [7] was 3 to 15 days.
With `CCCCCCCCCCCCCCCCCCCCCC(=O)NCCc1ccc(O)c(O)c1`, the “crossing of the blood brain barrier (in words)” value in series [1] is “does not effectively cross the blood brain barrier”. For the same compound, in series [8], the “activity as an appetite-suppressant (in words)” value was “essentially inactive”.
For `CCCCCCCCCCCC(=O)NCCc1ccc(O)c(O)c1`, in that order: “does not effectively cross the blood brain barrier” and “completely inactive”.
